According to patent publication US20190022089A1, “PHARMACEUTICAL COMPOSITIONS AND DOSAGE FORMS” (Ignyta, Inc., priority 2017, published 2019):

How the values were obtained:
[1] = Suitability of acids in 1:1 admixture: storage stability (appearance, HPLC); type: physicochemical; settings: for Most abundant impurity (area %): three months storage, HPLC
Protocol: The mixtures were prepared in duplicate for each sample, and stored in open top, 4 mL glass vials at (1) 60° C./dry heat and (2) 40° C. and 75% relative humidity (RH).
All admixture samples and the control samples stored at the 60° C. and dry heat condition remained as dry powders.
The HPLC traces analyses were conducted on an Agilent 1100 LC, equipped with Agilent Diode Array Detector and Chemstation Software using the conditions found in the table below.

[2] = Comparative pharmacokinetic study of F1 and F2 formulations; type: in vivo, human; settings: 800 mg fixed dose, 23 healthy subjects
Protocol: A comparative pharmacokinetic study in healthy, human subjects was conducted comparing a 200 mg dosage strength of pharmaceutical composition F1 (as described in Example 11) with a 200 mg dosage strength pharmaceutical composition F2 (as described in Example 10).
Pharmaceutical compositions F1 and F2, along with and lansoprazole, were administered orally with approximately 240 mL of water, according to the randomization scheme. Lansoprazole was administered as 30 mg lansoprazole delayed-release capsules.
Subjects were randomized into two groups, A and B. Periods 1 and 2 were conducted as a crossover design under fasting conditions where all subjects received F1 and F2. […] A representative summary of Periods 1, 2, and 3 and the pharmaceutical compositions subjects in groups A and B will receive in each Period is found below.
Subjects were randomized and received 3 out of 4 treatments in one of the following sequences: […] (i.e., Periods 1 and 2 were conducted as a crossover design under fasting conditions [Treatments A and B]). […] Each subject received each of the 3 assigned treatments on one occasion.
Treatment A: 30 mg lansoprazole (1×30 mg capsule), for 9 consecutive days (within ±1 hour of dosing time on Day 1), with 800 mg F1 (4×200 mg capsules) administered under fasting conditions 1.5 hours after administration of lansoprazole on Day 4. […]

[3] = Single-dose food effect study in dogs; type: in vivo; settings: formulation that did not comprise at least one acidulant
From the text: Such food effects can cause difficulty during human testing of drugs as the fed or fasted condition of the patient can cause exposure or bioavailability of drugs to vary widely.

[4] = system: cancer having at least one molecular alteration in one or more of ALK, ROS1, TrkA, TrkB and TrkC; test: Early clinical studies in humans (antitumor effects); type: in vivo; settings: patients having various forms of cancer
[5] = target: TrkB (Homo sapiens, UniProt Q16620); settings: cited from earlier work
[6] = target: TrkC (Homo sapiens, UniProt Q16288); settings: cited from earlier work
[7] = target: ALK (Homo sapiens, UniProt Q9UM73); settings: cited from earlier work
[8] = Early clinical studies in humans, formulation without acidulant (exposure); settings: for AUC higher when taken with food: formulation without acidulant

Sequence of TrkC (Q16288 32-839): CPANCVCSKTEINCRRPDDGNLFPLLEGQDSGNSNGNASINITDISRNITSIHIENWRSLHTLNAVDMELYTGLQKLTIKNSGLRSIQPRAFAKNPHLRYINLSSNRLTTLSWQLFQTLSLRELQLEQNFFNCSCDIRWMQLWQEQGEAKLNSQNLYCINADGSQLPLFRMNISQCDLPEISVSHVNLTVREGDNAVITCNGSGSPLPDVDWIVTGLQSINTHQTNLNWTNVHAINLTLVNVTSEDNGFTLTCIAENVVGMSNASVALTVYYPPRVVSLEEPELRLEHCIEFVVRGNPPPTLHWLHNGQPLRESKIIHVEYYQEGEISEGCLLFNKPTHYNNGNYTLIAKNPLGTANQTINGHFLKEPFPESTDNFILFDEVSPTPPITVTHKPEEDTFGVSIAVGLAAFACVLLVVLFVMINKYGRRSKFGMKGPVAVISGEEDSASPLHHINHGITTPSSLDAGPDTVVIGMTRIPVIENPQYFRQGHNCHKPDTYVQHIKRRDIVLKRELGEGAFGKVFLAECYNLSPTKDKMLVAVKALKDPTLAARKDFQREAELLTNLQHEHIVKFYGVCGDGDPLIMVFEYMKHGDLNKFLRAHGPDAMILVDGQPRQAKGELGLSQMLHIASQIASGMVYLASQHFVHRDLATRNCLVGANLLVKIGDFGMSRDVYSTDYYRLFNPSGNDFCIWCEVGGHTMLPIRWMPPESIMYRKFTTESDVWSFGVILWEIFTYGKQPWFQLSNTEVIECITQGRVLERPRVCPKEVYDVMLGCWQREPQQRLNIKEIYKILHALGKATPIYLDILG
Sequence of TrkB (Q16620 32-822): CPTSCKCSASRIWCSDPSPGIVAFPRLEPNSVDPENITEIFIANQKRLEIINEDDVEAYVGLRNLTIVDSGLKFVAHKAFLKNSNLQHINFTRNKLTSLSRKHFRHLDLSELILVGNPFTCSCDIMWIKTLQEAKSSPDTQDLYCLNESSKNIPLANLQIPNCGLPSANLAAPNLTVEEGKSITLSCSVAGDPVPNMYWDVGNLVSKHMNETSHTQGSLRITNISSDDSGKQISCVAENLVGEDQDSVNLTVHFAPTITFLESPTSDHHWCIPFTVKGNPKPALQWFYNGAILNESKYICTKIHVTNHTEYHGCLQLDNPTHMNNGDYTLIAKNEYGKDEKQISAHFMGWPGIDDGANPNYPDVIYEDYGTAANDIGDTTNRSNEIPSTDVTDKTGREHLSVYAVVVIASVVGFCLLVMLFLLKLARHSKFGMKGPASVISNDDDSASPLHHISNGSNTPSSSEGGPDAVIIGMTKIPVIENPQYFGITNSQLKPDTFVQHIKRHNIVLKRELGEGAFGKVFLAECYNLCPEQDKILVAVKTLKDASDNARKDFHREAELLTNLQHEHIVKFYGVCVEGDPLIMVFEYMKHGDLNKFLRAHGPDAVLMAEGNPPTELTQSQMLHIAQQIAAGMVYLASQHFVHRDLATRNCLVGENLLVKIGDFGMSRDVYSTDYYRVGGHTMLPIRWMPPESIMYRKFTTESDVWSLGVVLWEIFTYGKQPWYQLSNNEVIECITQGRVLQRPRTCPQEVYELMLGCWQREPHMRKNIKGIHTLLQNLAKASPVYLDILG
Sequence of ALK (Q9UM73 19-1620): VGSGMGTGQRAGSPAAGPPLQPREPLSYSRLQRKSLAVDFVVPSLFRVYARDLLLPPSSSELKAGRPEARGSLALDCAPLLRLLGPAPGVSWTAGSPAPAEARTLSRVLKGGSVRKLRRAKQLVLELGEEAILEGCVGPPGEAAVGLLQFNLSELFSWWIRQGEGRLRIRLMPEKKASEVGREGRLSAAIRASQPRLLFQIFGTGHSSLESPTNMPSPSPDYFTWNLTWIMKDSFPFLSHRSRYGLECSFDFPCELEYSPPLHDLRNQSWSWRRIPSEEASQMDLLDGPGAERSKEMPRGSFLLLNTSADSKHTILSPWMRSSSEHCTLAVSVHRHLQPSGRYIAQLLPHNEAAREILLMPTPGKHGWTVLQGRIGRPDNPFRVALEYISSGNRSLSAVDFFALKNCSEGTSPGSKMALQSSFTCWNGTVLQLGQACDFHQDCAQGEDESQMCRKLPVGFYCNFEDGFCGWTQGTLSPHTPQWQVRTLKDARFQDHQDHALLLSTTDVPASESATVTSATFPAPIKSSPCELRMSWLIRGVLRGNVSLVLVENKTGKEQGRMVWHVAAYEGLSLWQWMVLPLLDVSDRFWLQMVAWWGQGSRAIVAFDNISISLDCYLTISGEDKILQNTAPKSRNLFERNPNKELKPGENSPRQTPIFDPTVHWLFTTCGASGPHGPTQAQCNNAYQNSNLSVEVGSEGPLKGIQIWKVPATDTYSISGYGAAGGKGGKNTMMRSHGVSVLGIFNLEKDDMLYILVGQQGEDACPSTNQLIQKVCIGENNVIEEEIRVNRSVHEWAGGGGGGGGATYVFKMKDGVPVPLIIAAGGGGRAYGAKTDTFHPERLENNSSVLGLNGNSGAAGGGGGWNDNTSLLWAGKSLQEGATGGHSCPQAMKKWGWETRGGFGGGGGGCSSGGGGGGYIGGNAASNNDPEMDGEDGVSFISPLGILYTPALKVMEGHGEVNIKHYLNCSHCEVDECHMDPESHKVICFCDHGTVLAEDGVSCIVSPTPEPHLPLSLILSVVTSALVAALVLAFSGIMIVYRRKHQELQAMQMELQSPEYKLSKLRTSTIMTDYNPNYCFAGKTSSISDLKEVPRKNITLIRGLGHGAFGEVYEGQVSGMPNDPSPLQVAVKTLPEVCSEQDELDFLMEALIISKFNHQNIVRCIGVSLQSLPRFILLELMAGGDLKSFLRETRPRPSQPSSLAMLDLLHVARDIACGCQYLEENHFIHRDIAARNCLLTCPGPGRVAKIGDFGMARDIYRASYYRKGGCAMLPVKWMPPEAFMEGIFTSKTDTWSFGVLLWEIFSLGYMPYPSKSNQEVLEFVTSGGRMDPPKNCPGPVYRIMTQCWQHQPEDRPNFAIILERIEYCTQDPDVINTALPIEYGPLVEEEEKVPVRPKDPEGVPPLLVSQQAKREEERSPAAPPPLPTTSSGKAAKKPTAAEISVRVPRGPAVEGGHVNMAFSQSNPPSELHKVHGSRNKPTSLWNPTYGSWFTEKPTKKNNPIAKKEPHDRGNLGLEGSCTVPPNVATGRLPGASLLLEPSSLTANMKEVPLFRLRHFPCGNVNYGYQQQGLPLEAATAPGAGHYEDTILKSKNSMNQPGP

## CN1CCN(c2ccc(C(=O)Nc3n[nH]c4ccc(Cc5cc(F)cc(F)c5)cc34)c(NC3CCOCC3)c2)CC1 [N-[5-(3,5-difluorobenzyl)-1H-indazol-3-yl]-4-(4-methyl-piperazin-1-yl)-2-(tetrahydro-pyran-4-ylamino)-benzamide]
[1]; 40° C./75% RH, listed as Control
  Most abundant impurity (area %): 0.13%
[1]; 60° C. Dry Heat
  Most abundant impurity (area %): 0.13%
[1]; 13 days of storage, 40° C. and 75% RH
  physical state observed: remained dry
[2]
  correlation of total exposure with body weight or body surface area: did not correlate with body weight or body surface area
[3]
  exposure levels, fed compared to fasting conditions: approximately 2 fold
[4]
  antitumor effects: antitumor effects
[5]
  inhibition: potent inhibitor
[6]
  inhibition: potent inhibitor
[7]
  inhibition: potent inhibitor
[8]; 200 mg/m^2/day
  AUC higher when taken with food: approximately 200%
[8]; 400 mg/m^2/day
  AUC higher when taken with food: ~50%
[8]; both doses (200 and 400 mg/m^2/day)
  Cmax higher with food: approximately 150%
[8]; some patients
  exposures with concomitant proton pump inhibitor drugs (PPIs), such as lansoprazole: variable
